Assays:
human NHE3 [1] = target: T1, human NHE3 (Homo sapiens, UniProt P48764); assay: Measurements of NHE3 inhibitory activities (OK26 cells); type: cell-based; conditions: OK26 cells (opossum kidney cells overexpressing human NHE3), measurement time 5 minutes at 37° C.; read-out: hNHE3 IC50
T1 construct: expressed in transfected cells; host or cells: OK26 cells (opossum kidney OK cells); OK26 ND sublines with opNHE1 reduced by 90% for A3
T1 sequence (P48764 26-834): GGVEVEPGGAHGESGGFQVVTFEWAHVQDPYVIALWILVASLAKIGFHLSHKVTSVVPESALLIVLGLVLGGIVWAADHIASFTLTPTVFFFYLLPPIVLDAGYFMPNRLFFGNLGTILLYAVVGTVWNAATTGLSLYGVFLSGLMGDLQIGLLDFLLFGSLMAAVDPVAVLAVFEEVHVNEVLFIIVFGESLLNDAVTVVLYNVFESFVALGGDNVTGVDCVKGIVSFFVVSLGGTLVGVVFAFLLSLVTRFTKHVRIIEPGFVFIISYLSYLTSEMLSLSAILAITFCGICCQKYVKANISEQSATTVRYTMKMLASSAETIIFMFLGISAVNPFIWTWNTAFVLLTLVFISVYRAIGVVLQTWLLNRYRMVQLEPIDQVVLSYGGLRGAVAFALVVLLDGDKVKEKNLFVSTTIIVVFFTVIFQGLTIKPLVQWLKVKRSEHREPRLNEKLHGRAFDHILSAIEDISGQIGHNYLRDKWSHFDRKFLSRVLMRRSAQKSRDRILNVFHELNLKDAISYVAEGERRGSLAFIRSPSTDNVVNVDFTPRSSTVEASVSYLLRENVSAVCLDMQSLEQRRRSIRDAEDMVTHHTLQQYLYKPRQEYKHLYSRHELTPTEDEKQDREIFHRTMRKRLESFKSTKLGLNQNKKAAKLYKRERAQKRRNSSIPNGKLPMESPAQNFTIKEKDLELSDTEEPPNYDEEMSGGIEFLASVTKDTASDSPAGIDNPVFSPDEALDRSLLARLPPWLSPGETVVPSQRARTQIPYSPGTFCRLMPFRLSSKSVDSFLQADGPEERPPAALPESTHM
Protocol: (§1) HLF cells (Human hepatoma cell line) were used as cells for the test. After 1×10^4 cells/well were seeded to a 96-well plate and cultured for 3 days, they were cultured overnight under a serum-free medium. Then, the cells were incubated in a stain solution of Tetramethylammonium (TMA) Buffer (130 mM TMA-C1, 5 mM KCl, 2 mM CaCl2, 1 mM MgSO2, 25 mM glucose, 20 mM HEPES; pH 7.4) containing 40 mM NH4Cl and 1 μg/mL pH-sensitive fluorescent indicator BCECF-AM at 37° C. for 40 minutes and then BCECF was introduced into the cells. After the cells were washed once with TMA Buffer and incubated in TMA+40 mM NH4Cl solution at 37° C. for 15 minutes, the solution was removed and 20 μL/well of TMA Buffer and 10 μL/well of each test compound solution prepared with TMA Buffer were added to each well. The measurements were carried out by adding 200 μL/well of Na Buffer (130 mM, NaCl, 5 mM KCl, 2 mM CaCl2, 1 mM MgSO2, 1 mM NaH2PO4, 25 mM glucose, 20 mM HEPES; pH 7.4) or TMA Buffer (for base measurement), immediately placing it on FlexStation (Molecular Device) and then, after 10 minutes, measuring, it the two wavelengths of 505 nm (excitation wavelength)/530 nm (emission wavelength) (measurement value) and 440 nm (excitation wavelength)/530 nm (emission wavelength) (isosbestic point value). A NHE activity was calculated by dividing a measurement value by an isosbestic point value and a NHE1 inhibitory activity was calculated by the following equation. NHE1 inhibitory activity (%)=100×(1−(Measurement value [addition of each compound]−Base [addition of TMA Buffer])/(Control [addition of Na Buffer]−Base [addition of TMA Buffer]))
Pharmacological Test Example 2: Measurements of NHE3 Inhibitory Activities.
OK26 cells (OK (opossum kidney) cells in which human NHE3 genes are overexpressed) were used as cells for the test. The measurements were carried out in the same manner as described in Pharmacological Test Example 1 except that the measurement time was 5 minutes (at 37° C.) to calculate NHE3 inhibitory activities.

[2] = MDCK membrane permeability (trans-well); type: in vitro ADME, Canine; conditions: dog, apical pH 6.5 / basal pH 7.4, 37° C.
Protocol: Pharmacological Test Example 4: MDCK Membrane Permeability
1×10^6 MDCK (MADIN-DARBY Canine Kidney) cells were seeded to each well and cultivated on a trans-well for 4 days (Mixed medium; DMEM: F12=1:1). The trans-well consists of a upper chamber into which cells are seeded and a lower chamber which is separated by a porous membrane and each test compound added into the upper chamber penetrates through the porous membrane to be detected in the lower chamber. The trans-well system has been used as a model for cell membrane permeability.
Buffer solution (pH 6.5) (138 mM NaCl, 2.7 mM KCl, 25 mM D-Glucose, 20 mM MES, 1.25 mM CaCl2, 0.5 mM MgCl2; pH was adjusted with KOH) was added into the upper chamber (Apical side) while Buffer solution (pH 7.4) (138 mM NaCl, 2.7 mM KCl, 25 mM D-Glucose, 20 mM HEPES, 1.25 mM CaCl2, 0.5 mM MgCl2; pH was adjusted with KOH) was added into the lower chamber (basal side). After it was pre-incubated at 37° C. for 20 minutes, 50 μM of each test compound was added thereto and then reacted at 37° C. for 1 hour. The solutions in the upper and lower chambers were collected and the concentrations of each test compound were determined by LC/MS to calculate membrane permeability values (Pm values) by the following equation. Pm[cm/sec]=(Concentration of each test compound in the basal side×1.5 mL)/(3600 sec×1.12 cm^2×Initial concentration of the added compound)

[3] = tested on: renal dysfunction model rats; assay: Continuous administration test in renal dysfunction model rats; type: in vivo, Wistar rats
Protocol: Pharmacological Test Example 5: Continuous Administration Test in Renal Dysfunction Model Rats
After unilateral nephrectomy was performed on 7-week-old Wistar rats and the rats were habituated for 1 week, they were divided into 4 groups based on their body weights, Normal group, Vehicle group, 20 mg/kg of the compound of Example 7-administered group and 50 mg/kg of the compound of Example 7-administered group were assigned to 5 rats, respectively. After the rats were habituated in metabolic cages for 4 days, the test compound the compound of Example 7) dissolved in 0.5% methylcellulose solution was administered via gavage simultaneously with intraperitoneal administration of oleic acid-containing bovine serum albumin (OA-BSA) at a dose of 2 g/animal once daily for 4 days. Vehicles (0.5% methylcellulose solution) were administered to Normal group and Vehicle group instead of the test compound (the compound of Example 7). In addition, no oleic acid-containing bovine serum albumin was administered to Normal group and only unilateral nephrectomy was performed on the Normal group rats. Urine samples were collected from each rat on the last administration day to the next day of the last administration, and blood sampling and autopsy were conducted on the same day.

NHE1 = target: T2, NHE1 (Homo sapiens, UniProt P19634); assay: Measurements of NHE1 inhibitory activities (HLF cells, BCECF pH recovery); type: cell-based; conditions: HLF cells (human hepatoma cell line), measured after 10 minutes; read-out: hNHE1 IC50
T2 construct: HLF cells (Human hepatoma cell line) were used as cells for the test; endogenous in cells; host or cells: HLF cells (human hepatoma cell line)
Protocol: Pharmacological Test Example 1: Measurements of NHE1 Inhibitory Activities
as §1

human NHE3 [4] = target: T1, human NHE3; assay: Improved version of measurements of NHE3 inhibitory activities (OK26 ND cell lines); type: cell-based; conditions: OK26 ND cell lines (opNHE1 expression reduced by 90%), measurement time 8 minutes at 26° C.; read-out: hNHE3 IC50
Protocol: Pharmacological Test Example 3: Improved Version of Measurements of NHE3 Inhibitory Activities
OK26 cells express endogeneous NHE1 (opNHE1). In order to evaluate NHE3 inhibitory activities more precisely, OK26 ND cell lines in which the expression level of opNHE1 is reduced by 90% were established. Measurements of NEE inhibitory activities were carried out by using the established cell lines in the same manner as described in Pharmacological Test Example 1 except that the measurement time was 8 minutes (at 26° C.) to calculate more precise NHE3 inhibitory activities.

[5] = test compound-administered groups (20 and 50 mg/kg), 4 days, FIG. 2

T2 sequence (P19634 whole entry): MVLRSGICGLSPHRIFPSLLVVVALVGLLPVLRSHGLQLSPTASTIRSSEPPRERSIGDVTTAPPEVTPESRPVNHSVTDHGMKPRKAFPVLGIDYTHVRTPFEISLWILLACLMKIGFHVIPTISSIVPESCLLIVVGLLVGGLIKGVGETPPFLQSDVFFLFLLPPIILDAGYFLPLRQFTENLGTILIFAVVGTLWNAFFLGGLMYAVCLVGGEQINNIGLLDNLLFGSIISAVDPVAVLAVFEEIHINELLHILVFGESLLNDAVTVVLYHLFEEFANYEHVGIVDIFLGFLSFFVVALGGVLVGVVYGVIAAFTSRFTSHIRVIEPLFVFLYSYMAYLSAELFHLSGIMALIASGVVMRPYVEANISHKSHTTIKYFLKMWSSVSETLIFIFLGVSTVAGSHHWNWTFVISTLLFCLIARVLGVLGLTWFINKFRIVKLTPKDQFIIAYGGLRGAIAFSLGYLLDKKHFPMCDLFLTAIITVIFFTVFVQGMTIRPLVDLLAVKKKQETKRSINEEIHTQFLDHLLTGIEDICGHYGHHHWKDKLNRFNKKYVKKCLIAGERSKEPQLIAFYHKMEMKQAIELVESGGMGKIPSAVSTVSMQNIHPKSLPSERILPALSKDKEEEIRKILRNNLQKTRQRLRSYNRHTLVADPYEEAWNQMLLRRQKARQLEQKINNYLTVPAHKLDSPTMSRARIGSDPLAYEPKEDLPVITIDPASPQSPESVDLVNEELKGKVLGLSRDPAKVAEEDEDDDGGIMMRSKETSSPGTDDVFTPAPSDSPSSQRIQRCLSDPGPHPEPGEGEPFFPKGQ

Compound | IC50 (human NHE3 [1]) [nM] | Papp A→B at 1 h, 50 μM [2] [×10⁻⁶ cm/s] | tubular damages (beta 2-microglobulin, marker for tubular damage) ([3]; 20 mg/kg and 50 mg/kg via gavage once daily for 4 days, OA-BSA i.p., unilaterally nephrectomized rats, FIG. 1) | tubular damage scores ([3]; test compound administered groups (20 and 50 mg/kg), 4 days, FIG. 3) | appearances of urinary cast (renal pathological images) [3, 5] | dilation of proximal renal tubules (renal pathological images) [3, 5] | IC50 (NHE1) [nM] | IC50 (human NHE3 [4]) [nM]
COC(=O)c1ccc(-c2ccccc2/C=C(\C)C(=O)NC(=N)N)cc1 [Example 7, (E)-2′-(3-guanidino-2-methyl-3-oxo-propenyl)-biphenyl-4-carboxylic acid methyl ester] | > 10000 | 2 | Significant improvements in tubular damages | Reductions in tubular damage scores | significant reductions in appearances of urinary cast | improvements in dilation of proximal renal tubules |  | 
CC(=O)c1cccc(-c2ccccc2/C=C(\C)C(=O)NC(=N)N)c1 [Example 15, N-[(E)-3-(3′-acetyl-biphenyl-2-yl)-2-methyl-acryloyl]guanidine] | 610 | 1 |  |  |  |  | 1200 | 360
C/C(=C\c1ccccc1-c1ccc(O)c(O)c1)C(=O)NC(=N)N [Example 26, N-[(E)-3-(3′,4′-dihydroxy-biphenyl-2-yl)-2-methyl-acryloyl]-guanidine] | 230 |  |  |  |  |  | 500 | 230

— US20120088737A2, “NOVEL ACYL GUANIDINE DERIVATIVES” (AJINOMOTO CO., INC, priority 2009, published 2012)
